Data published in ChEMBL document CHEMBL4334471, “Discovery of 1,8-disubstituted-[1,2,3]triazolo[4,5-c]quinoline derivatives as a new class of Hippo signaling pathway inhibitors” (Bioorg Med Chem Lett, 2019).

How the values were obtained:
[1] = target: Protein kinase C delta type (Homo sapiens) (UniProt Q05655); test: Inhibition of recombinant human PKCdelta (2 to end residues) assessed as residual activity at 10 uM using ERMRPRKRQGSVRR as substrate incubated for 40 mins in presence of [gamma33P]ATP by scintillation counting based radiometry assay relative to control
Homo sapiens = species: Homo sapiens; test: Inhibition of recombinant human A-Raf Y301D/ Y302D mutant (273 to end residues) assessed as residual activity at 10 uM using myelin basic protein as substrate incubated for 40 mins in presence of [gamma-33ATP] by scintillation counting based radiometry assay relative to control
[2] = target: Calcium/calmodulin-dependent protein kinase type 1B (Homo sapiens) (UniProt Q6P2M8); test: Inhibition of recombinant full length human CaMKIbeta assessed as residual activity at 10 uM using KKLRRTLSFAEP as substrate incubated for 40 mins in presence of [gamma-33ATP] by scintillation counting based radiometry assay relative to control
[3] = target: Activin receptor type-1B (Homo sapiens) (UniProt P36896); test: Inhibition of human ALK4 (150 to end residues) assessed as residual activity at 10 uM using casein as substrate incubated for 40 mins in presence of [gamma-33ATP] by scintillation counting based radiometry assay relative to control
[4] = tested on: Hepatocyte growth factor receptor (Homo sapiens), P08581 [D1228N]; test: Inhibition of recombinant human MET A1209G/V1290L/D1246N mutant (974 to end residues) assessed as residual activity at 10 uM using KKKGQEEEYVFIE as substrate incubated for 40 mins in presence of [gamma-33ATP by scintillation counting based radiometry assay relative to control
[5] = target: Homeodomain-interacting protein kinase 1 (Homo sapiens) (UniProt Q86Z02); test: Inhibition of human HIPK1 (158 to 555 residues) assessed as residual activity at 10 uM using myelin basic protein as substrate after 40 mins by [gamma-33ATP] radiometric assay relative to control
[6] = tested on: RAC-beta serine/threonine-protein kinase (Homo sapiens), P31751 [S474D]; test: Inhibition of recombinant human PKBbeta S474D mutant (120 to end residues) assessed as residual activity at 10 uM using GRPRTSSFAEGKK as substrate incubated for 40 mins in presence of [gamma33P]ATP by scintillation counting based radiometry assay relative to control
Mus musculus = species: Mus musculus; test: Inhibition of recombinant full-length mouse PI3K p110/p85 E542K mutant assessed as residual activity at 10 uM using phosphatidylinositol-4, 5-bisphosphate as substrate incubated for 40 mins in presence of [gamma33P]ATP by scintillation counting based radiometry assay relative to control
[7] = target: Death-associated protein kinase 2 (Homo sapiens) (UniProt Q9UIK4); test: Inhibition of recombinant full length human DAPK2 assessed as residual activity at 10 uM Calmodulin as substrate incubated 40 mins in presence of [gamma-33ATP] by scintillation counting based radiometry assay relative to control
[8] = target: Inhibitor of nuclear factor kappa-B kinase subunit epsilon (Homo sapiens) (UniProt Q14164); test: Inhibition of full length human IKKepsilon assessed as residual activity at 10 uM using peptide as substrate after 40 mins by [gamma-33ATP] radiometric assay relative to control
[9] = target: Protein kinase C zeta type (Homo sapiens) (UniProt Q05513); test: Inhibition of recombinant human PKCzeta (2 to end residues) assessed as residual activity at 10 uM using ERMRPRKRQGSVRRRV as substrate incubated for 40 mins in presence of [gamma33P]ATP by scintillation counting based radiometry assay relative to control
[10] = target: Dual specificity protein kinase CLK3 (Homo sapiens) (UniProt P49761); test: Inhibition of recombinant full length human CLK3 assessed as residual activity at 10 uM using ERMRPRKRQGSVRRRV as substrate incubated 40 mins in presence of [gamma-33ATP] by scintillation counting based radiometry assay relative to control
[11] = target: Testis-specific serine/threonine-protein kinase 2 (Homo sapiens) (UniProt Q96PF2); test: Inhibition of recombinant full-length human TSSK2 assessed as residual activity at 10 uM using KKKVSRSGLYRSPSMPENLNRPR as substrate incubated for 40 mins in presence of [gamma33P]ATP by scintillation counting based radiometry assay relative to control
[12] = target: Tyrosine-protein kinase Fyn (Homo sapiens) (UniProt P06241); test: Inhibition of recombinant full length human Fyn assessed as residual activity at 10 uM using KVEKIGEGTYGVV as substrate at 40 mins in presence of [gamma-33ATP] by scintillation counting based radiometry assay relative to control
[13] = target: Aurora kinase C (Homo sapiens) (UniProt Q9UQB9); test: Inhibition of recombinant human Aurora C (35 to end residues) assessed as residual activity at 10 uM using AKRRRLSSLRA as substrate incubated for 40 mins in presence of [gamma-33ATP] by scintillation counting based radiometry assay relative to control
[14] = target: Platelet-derived growth factor receptor alpha (Homo sapiens) (UniProt P16234); test: Inhibition of human PDGFRalpha (550 to end residues) assessed as residual activity at 10 uM using poly(Glu, Tyr) 4:1 as substrate measured after 40 mins in presence of [gamma33P]ATP by scintillation counting based radiometry assay relative to control
[15] = target: Serine/threonine-protein kinase 38-like (Homo sapiens) (UniProt Q9Y2H1); test: Inhibition of recombinant human NDR2 (83 to end residues) assessed as residual activity at 10 uM using RSRSRSRSRSRSRSR as substrate measured after 40 mins in presence of [gamma33P]ATP by scintillation counting based radiometry assay relative to control
[16] = target: Serine/threonine-protein kinase 17B (Homo sapiens) (UniProt O94768); test: Inhibition of recombinant human DRAK2 assessed as residual activity at 10 uM using KKRPQRRYSNVF as substrate at 120 mins in presence of [gamma-33ATP] by scintillation counting based radiometry assay relative to control
[17] = target: Testis-specific serine/threonine-protein kinase 4 (Homo sapiens) (UniProt Q6SA08); test: Inhibition of recombinant full-length human TSSK4 assessed as residual activity at 10 uM using KKLNRTLSFAEPG as substrate incubated for 40 mins in presence of [gamma33P]ATP by scintillation counting based radiometry assay relative to control
[18] = target: Serine/threonine-protein kinase 32A (Homo sapiens) (UniProt Q8WU08); test: Inhibition of recombinant human full length STK32A assessed as residual activity at 10 uM using casein as substrate incubated for 40 mins in presence of [gamma33P]ATP by scintillation counting based radiometry assay relative to control
[19] = target: Inhibitor of nuclear factor kappa-B kinase subunit beta (Homo sapiens) (UniProt O14920); test: Inhibition of full length human IKKbeta assessed as residual activity at 10 uM using peptide as substrate after 40 mins by [gamma-33ATP] radiometric assay relative to control
[20] = target: Inhibitor of nuclear factor kappa-B kinase subunit alpha (Homo sapiens) (UniProt O15111); test: Inhibition of full length human IKKalpha assessed as residual activity at 10 uM using peptide as substrate after 40 mins by [gamma-33ATP] radiometric assay relative to control
Chain of Inhibitor of nuclear factor kappa-B kinase subunit alpha (Homo sapiens) (O15111 whole entry): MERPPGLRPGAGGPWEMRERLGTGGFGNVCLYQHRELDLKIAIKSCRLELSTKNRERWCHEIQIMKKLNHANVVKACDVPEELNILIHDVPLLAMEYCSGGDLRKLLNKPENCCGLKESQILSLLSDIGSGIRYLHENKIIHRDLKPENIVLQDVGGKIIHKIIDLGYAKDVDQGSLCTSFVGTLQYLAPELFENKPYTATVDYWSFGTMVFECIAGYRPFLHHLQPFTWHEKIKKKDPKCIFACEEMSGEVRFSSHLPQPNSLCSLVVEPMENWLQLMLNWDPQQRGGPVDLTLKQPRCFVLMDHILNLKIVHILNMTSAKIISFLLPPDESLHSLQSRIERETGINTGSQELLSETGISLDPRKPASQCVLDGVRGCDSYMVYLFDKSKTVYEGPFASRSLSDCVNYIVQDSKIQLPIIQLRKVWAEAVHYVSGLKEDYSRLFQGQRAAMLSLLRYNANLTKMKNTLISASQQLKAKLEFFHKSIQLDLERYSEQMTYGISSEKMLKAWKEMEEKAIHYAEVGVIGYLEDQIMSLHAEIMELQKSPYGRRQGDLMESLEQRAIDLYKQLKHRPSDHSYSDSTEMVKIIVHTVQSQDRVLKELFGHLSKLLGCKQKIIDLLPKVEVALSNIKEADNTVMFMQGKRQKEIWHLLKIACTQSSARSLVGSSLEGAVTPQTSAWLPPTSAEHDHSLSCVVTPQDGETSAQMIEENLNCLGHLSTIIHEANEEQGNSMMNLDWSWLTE

Chain of Inhibitor of nuclear factor kappa-B kinase subunit beta (Homo sapiens) (O14920 whole entry): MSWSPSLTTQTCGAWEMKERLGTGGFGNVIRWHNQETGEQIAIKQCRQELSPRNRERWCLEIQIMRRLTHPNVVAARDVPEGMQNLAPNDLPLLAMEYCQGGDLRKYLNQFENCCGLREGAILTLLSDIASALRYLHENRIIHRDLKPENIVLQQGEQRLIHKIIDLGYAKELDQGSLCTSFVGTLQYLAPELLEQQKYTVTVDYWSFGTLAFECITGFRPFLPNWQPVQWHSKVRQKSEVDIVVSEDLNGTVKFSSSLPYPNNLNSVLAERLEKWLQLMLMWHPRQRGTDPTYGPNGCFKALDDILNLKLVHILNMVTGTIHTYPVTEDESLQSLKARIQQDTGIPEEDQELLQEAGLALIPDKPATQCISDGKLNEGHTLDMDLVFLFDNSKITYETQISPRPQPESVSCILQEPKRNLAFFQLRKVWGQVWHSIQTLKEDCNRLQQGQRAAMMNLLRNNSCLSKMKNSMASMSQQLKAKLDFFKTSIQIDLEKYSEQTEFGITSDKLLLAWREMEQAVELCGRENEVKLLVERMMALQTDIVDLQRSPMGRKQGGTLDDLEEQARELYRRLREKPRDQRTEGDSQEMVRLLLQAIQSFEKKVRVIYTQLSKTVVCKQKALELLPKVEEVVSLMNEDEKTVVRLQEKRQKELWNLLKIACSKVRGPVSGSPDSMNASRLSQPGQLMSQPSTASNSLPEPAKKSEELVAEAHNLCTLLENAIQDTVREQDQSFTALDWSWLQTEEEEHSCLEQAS
Chain of Tyrosine-protein kinase Fyn (Homo sapiens) (P06241 2-537 limits assumed): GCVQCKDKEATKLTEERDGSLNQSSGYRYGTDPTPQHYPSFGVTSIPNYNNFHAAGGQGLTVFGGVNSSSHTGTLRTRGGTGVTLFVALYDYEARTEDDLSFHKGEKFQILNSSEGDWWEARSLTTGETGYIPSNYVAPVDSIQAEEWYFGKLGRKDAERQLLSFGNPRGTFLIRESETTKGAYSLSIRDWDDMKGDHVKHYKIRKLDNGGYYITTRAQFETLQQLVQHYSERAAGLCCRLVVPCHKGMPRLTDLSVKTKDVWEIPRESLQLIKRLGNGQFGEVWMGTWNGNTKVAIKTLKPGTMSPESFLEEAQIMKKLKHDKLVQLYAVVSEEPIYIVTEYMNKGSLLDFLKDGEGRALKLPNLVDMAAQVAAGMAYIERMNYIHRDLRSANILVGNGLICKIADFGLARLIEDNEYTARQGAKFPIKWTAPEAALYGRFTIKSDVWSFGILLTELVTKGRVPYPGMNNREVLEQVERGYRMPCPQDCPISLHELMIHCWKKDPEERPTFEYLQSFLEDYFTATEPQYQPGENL
Chain of Testis-specific serine/threonine-protein kinase 4 (Homo sapiens) (Q6SA08 whole entry): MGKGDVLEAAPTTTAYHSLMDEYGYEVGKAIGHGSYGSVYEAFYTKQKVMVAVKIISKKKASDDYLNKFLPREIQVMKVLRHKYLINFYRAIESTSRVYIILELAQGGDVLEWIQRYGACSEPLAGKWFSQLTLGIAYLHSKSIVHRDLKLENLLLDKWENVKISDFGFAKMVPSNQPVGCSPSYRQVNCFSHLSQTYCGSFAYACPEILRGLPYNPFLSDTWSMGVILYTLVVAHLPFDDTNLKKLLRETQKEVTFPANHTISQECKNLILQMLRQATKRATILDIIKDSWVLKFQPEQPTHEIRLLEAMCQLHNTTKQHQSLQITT
Chain of Protein kinase C delta type (Homo sapiens) (Q05655 whole entry, looked up): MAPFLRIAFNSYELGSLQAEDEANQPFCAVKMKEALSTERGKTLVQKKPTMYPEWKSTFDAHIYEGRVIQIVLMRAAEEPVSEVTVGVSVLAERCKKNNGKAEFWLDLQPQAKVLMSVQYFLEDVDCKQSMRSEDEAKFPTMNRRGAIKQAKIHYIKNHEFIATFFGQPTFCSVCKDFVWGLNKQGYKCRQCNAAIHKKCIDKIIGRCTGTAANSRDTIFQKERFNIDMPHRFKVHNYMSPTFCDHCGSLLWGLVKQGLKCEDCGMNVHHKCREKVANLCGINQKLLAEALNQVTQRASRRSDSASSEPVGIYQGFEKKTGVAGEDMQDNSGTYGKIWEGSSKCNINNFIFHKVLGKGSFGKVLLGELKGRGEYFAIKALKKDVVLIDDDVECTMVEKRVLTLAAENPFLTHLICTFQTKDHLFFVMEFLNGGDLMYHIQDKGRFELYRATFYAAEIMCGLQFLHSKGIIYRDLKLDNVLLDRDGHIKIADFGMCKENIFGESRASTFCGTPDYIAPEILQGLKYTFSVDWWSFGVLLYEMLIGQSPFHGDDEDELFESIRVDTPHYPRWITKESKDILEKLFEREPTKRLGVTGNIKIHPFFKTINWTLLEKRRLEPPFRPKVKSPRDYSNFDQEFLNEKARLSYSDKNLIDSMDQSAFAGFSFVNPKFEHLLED
Chain of Platelet-derived growth factor receptor alpha (Homo sapiens) (P16234 whole entry): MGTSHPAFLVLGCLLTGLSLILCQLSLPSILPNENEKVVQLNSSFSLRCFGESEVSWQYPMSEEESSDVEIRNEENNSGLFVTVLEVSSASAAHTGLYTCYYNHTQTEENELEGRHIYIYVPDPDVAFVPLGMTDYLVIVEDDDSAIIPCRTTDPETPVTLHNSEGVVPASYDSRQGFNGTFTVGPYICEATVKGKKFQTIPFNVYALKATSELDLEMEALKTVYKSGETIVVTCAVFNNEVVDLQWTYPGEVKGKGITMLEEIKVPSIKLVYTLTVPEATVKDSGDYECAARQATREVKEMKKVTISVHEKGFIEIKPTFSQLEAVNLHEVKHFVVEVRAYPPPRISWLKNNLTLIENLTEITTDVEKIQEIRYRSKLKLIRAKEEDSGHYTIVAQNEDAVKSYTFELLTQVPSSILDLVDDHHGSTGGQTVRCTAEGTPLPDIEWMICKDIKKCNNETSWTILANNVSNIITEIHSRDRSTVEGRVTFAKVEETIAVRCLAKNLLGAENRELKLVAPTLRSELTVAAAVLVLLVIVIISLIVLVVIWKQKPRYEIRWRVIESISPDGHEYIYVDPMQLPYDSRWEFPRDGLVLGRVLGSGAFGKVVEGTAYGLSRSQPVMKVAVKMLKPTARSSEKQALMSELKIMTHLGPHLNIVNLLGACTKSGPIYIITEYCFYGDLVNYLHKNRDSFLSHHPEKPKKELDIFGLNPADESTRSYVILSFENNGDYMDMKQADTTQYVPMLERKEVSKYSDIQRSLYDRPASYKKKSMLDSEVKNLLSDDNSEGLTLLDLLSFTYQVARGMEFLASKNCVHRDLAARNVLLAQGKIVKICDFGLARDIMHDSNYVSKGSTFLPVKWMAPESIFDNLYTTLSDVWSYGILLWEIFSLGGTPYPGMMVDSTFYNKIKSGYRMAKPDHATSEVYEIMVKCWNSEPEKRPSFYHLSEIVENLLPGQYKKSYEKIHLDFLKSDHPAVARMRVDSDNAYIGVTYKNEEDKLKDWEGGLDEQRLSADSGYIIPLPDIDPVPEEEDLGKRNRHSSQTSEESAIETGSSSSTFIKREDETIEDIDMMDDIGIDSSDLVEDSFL
Chain of RAC-beta serine/threonine-protein kinase (Homo sapiens), P31751 [S474D] (P31751 whole entry S474D): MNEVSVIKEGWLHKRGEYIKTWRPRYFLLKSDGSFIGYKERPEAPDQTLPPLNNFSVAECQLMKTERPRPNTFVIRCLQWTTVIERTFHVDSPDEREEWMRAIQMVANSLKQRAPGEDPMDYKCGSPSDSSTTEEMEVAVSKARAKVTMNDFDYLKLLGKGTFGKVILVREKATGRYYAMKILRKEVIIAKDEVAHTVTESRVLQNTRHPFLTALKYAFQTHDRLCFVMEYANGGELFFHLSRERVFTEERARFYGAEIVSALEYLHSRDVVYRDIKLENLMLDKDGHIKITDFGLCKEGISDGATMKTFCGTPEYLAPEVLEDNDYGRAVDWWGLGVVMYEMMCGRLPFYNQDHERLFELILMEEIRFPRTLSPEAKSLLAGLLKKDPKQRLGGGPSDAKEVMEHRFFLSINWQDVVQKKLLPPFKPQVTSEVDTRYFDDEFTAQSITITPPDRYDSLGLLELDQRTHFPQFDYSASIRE
Chain of Aurora kinase C (Homo sapiens) (Q9UQB9 whole entry): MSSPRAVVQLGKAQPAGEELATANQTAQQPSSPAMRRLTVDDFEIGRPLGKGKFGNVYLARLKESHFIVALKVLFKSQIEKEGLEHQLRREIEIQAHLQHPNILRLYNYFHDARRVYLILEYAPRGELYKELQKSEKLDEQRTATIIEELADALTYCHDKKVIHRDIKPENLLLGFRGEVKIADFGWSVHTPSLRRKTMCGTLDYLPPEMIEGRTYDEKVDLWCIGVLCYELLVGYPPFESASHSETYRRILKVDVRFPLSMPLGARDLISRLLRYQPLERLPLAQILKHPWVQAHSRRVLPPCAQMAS

Structure (SMILES): C[C@@H](c1ccccc1)n1nnc2cnc3ccc(-c4cnc5[nH]ccc5c4)cc3c21
- Activity [1]: 91%
- Activity (Homo sapiens): 95%
- Activity [2]: 67%
- Activity [3]: 100%
- Activity [4]: 55%
- Activity [5]: 78%
- Activity [6]: 61%
- Activity (Mus musculus): -1%
- Activity [7]: 89%
- Activity [8]: 94%
- Activity [9]: 84%
- Activity [10]: 66%
- Activity [11]: 63%
- Activity [12]: 8%
- Activity [13]: 68%
- Activity [14]: 95%
- Activity [15]: 89%
- Activity [16]: 64%
- Activity [17]: 77%
- Activity [18]: 95%
- Activity [19]: 96%
- Activity [20]: 90%
